This is an account of results in ChEMBL document CHEMBL5131534, “Identification of 2-Pyridinylindole-Based Dual Antagonists of Toll-like Receptors 7 and 8 (TLR7/8)” (ACS Med Chem Lett, 2022).

By IC50 is commonly meant the concentration needed to halve the response being measured.

One series concerns the target T1, Toll-like receptor 7 (Homo sapiens, UniProt Q9NYK1).
T1 sequence (Q9NYK1 whole entry): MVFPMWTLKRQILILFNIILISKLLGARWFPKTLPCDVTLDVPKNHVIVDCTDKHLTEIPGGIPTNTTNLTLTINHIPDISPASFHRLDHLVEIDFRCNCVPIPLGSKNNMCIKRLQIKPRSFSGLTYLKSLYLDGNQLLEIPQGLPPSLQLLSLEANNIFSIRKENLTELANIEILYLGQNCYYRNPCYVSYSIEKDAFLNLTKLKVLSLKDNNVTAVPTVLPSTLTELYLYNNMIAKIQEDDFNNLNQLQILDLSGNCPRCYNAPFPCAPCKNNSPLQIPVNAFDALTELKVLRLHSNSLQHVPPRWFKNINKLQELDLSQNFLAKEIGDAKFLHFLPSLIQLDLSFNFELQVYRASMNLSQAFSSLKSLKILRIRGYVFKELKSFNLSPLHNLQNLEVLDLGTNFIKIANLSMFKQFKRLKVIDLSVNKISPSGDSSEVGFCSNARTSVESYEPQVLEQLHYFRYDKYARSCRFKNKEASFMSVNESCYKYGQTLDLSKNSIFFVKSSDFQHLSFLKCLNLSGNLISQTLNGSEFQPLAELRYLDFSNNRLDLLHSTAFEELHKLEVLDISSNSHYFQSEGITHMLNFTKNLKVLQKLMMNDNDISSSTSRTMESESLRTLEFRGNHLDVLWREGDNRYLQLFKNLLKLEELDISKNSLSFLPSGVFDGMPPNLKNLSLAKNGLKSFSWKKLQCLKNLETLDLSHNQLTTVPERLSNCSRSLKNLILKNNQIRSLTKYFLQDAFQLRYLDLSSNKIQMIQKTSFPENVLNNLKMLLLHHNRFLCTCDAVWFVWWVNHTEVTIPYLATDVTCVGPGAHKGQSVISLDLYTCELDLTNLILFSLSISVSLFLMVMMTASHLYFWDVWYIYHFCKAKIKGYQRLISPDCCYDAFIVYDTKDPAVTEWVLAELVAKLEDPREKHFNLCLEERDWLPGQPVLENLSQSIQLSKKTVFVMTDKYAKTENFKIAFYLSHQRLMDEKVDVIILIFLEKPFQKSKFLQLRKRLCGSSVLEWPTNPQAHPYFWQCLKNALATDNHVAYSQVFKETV
The series can be described thus: Antagonist activity at gardiquimod stimulated human TRL7 overexpressed in HEK293 cells assessed as inhibition of NF kappa B/Ap-1 activation preincubated with compound for 30 mins followed by gardiquimod stimulation measured after 22 hrs by SEAP reporter assay. The class given is cell-based.

A further series has as its target T2, Toll-like receptor 8 (Homo sapiens, UniProt Q9NR97).
T2 sequence (Q9NR97 whole entry): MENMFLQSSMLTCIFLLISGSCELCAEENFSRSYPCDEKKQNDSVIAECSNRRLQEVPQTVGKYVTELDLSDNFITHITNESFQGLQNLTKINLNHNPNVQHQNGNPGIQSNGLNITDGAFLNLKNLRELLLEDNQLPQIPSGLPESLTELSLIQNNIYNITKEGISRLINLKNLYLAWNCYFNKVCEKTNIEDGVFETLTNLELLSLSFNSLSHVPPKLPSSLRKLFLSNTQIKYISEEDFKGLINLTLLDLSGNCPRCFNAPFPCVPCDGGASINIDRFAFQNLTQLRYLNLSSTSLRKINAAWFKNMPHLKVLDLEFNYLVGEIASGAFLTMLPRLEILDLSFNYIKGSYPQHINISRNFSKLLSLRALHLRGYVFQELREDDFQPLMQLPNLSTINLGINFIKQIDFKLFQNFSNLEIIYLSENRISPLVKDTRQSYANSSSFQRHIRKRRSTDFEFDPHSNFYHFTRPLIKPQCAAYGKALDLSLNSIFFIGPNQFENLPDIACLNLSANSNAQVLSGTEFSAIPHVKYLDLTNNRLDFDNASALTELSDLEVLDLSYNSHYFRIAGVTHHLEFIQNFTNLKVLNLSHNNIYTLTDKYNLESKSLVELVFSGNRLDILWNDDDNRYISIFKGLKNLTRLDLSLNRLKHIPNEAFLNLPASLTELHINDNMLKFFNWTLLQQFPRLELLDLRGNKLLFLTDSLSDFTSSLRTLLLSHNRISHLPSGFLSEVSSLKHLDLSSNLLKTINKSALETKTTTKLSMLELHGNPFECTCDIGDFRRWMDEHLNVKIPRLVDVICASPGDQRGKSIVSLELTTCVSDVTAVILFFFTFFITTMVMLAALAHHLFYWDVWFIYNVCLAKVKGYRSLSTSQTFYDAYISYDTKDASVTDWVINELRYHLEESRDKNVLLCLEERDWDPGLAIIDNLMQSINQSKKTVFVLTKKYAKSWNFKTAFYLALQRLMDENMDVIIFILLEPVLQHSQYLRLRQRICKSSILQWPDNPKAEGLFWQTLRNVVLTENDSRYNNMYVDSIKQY
The series can be described thus: Antagonist activity at R848 stimulated human TRL8 overexpressed in HEK293 cells assessed as inhibition of NF kappa B/Ap-1 activation preincubated with compound for 30 mins followed by R848 stimulation measured after 22 hrs by SEAP reporter assay. The class given is cell-based. In general terms: A reporter such as luciferase makes a cellular process visible.

Another series is filed under the species Homo sapiens. The series is described as follows: Selectivity ratio of IC50 for human TLR9 to IC50 for human TLR7.
Series [1] has as its system Mus musculus. The series is described as follows: Anti-inflammatory activity against MRL/Ipr Systemic lupus erythematosus mouse model assessed as inhibition of anti-Sm/RNP Ab titer at 10 mg/kg, po administered for 8 weeks and measured 24 hrs post final dose relative to control. The class given is functional. Also on record: scale not given: the % may be the effect or the level left. The note with it: time 1368 hrs.

The subject of series [2] is Mus musculus. The series can be described thus: Anti-inflammatory activity against MRL/Ipr Systemic lupus erythematosus mouse model assessed as inhibition of urinary NGAL at 10 mg/kg, po administered for 8 weeks and measured 24 hrs post final dose relative to control. Also on record: scale not given: the % may be the effect or the level left. Particulars: time 1368 hrs. The class given is functional.

For series [3], the system named is Mus musculus. The series is described as follows: Anti-inflammatory activity against MRL/Ipr Systemic lupus erythematosus mouse model assessed as inhibition of anti-dsDNA Ab titer at 10 mg/kg, po administered for 8 weeks and measured 24 hrs post final dose relative to control. In kind it is functional. More on the design: scale not given: the % may be the effect or the level left. Particulars: time 1368 hrs.

Series [4] has as its system Mus musculus. The series can be described thus: Anti-inflammatory activity against MRL/Ipr Systemic lupus erythematosus mouse model assessed as inhibition of proteinuria at 10 mg/kg, po administered for 8 weeks and measured 24 hrs post final dose relative to control. The class given is functional. More on the design: scale not given: the % may be the effect or the level left. Particulars: time 1368 hrs.

A short description of series [5]: Toxicity in MRL/Ipr Systemic lupus erythematosus mouse model assessed as change in body weight at 10 mg/kg, po administered for 8 weeks and measured 24 hrs post final dose. In kind it is organism-based. The note with it: in vivo, 1368 h.
Series [6] is described as follows: Toxicity in MRL/Ipr Systemic lupus erythematosus mouse model assessed as relative spleen weight at 10 mg/kg, po administered for 8 weeks and measured 24 hrs post final dose relative to control. The class given is organism-based. Particulars: in vivo, 1368 h.

Regarding `COc1cc(-c2[nH]c3ccc(C4CCNCC4)cc3c2C(C)C)cc(C)n1`, at Toll-like receptor 7, the IC50 is 1.9 nM. For `Cc1cc(-c2[nH]c3cc(C(F)(F)F)c(C4CCNCC4)cc3c2C(C)C)ccn1`, the figures for the IC50 at Toll-like receptor 8 and on Toll-like receptor 7 were 420 nM and 17 nM, respectively. In the series listed under Homo sapiens, the Ratio IC50 came to 77.

As for `Cc1cc(-c2[nH]c3ccc(C4CCNCC4)cc3c2C(C)C)cc(F)n1`, the Ratio IC50 in the series listed under Homo sapiens was 1050. Same read-out and setting: for `Cc1cc(-c2[nH]c3ccc(C4CCNCC4)cc3c2C(C)C)c(C)cn1` the value was 370. Turning to `Cc1cc(-c2[nH]c3ccc(C4CCNCC4)c(F)c3c2C(C)C)cc(C)n1`, at Toll-like receptor 7, the IC50 worked out at 0.9 nM.

In the case of `COc1cc(-c2[nH]c3ccc(C4CCNCC4)cc3c2C(C)C)ccn1`, on Toll-like receptor 7, the 50% inhibitory concentration (IC50) stood at 74 nM.

For the molecule `CNCCN1CCC(c2ccc3[nH]c(-c4cccnc4)c(C)c3c2)CC1`, the IC50 on Toll-like receptor 7 is more than 10000 nM.

With `Cc1cnccc1-c1[nH]c2ccc(C3CCNCC3)cc2c1C(C)C`, the Ratio IC50 in the series listed under Homo sapiens came out at 91.

Regarding `CNCCN1CCC(c2ccc3[nH]c(-c4cncc(OC)c4)c(C)c3c2)CC1`, the IC50 at Toll-like receptor 7 came to 3300 nM.

Take `CCc1c(-c2ccnc(C)c2)[nH]c2c(F)cc(C3CCNCC3)cc12`: the Ratio IC50 in the series filed under Homo sapiens is 1. Turning to `CCc1cc(-c2[nH]c3ccc(C4CCNCC4)cc3c2C(C)C)cc(C)n1`, the IC50 at Toll-like receptor 7 amounted to 57 nM.

With `Cc1cc(-c2[nH]c3cc(C)c(C4CCNCC4)cc3c2C(C)C)ccn1`, the IC50 on Toll-like receptor 7 is 8.2 nM.

In the case of `Cc1cc(-c2[nH]c3ccc(C4CCNCC4)cc3c2C(C)C)c(C)c(C)n1`, the Ratio IC50 in the series filed under Homo sapiens worked out at 130. Turning to `CNCCN1CCC(c2ccc3[nH]c(-c4cccc(OC)n4)c(C)c3c2)CC1`, the IC50 on Toll-like receptor 7 is more than 10000 nM.

In the case of `CC(C)c1c(-c2ccncc2)[nH]c2ccc(C3CCNCC3)cc12`, the IC50 at Toll-like receptor 7 came to 29 nM.

Take `CCc1c(-c2ccnc(C)c2)[nH]c2ccc(C3CCNCC3)c(C)c12`: the IC50 on Toll-like receptor 7 is 14 nM. The same measure, in the same setting: for `Cc1cc(-c2[nH]c3ccc(C4CCNCC4)cc3c2C(C)C)cc(C2CC2)n1` the value was 22 nM; for `CCc1c(-c2ccnc(C)c2)[nH]c2ccc(C3CCNCC3)cc12`, 24 nM. Regarding `C[C@]12C=CC(=O)C=C1CC[C@@H]1[C@@H]2[C@@H](O)C[C@@]2(C)[C@H]1CC[C@]2(O)C(=O)CO` [PREDNISOLONE], the Activity in the series on Mus musculus [1] is 79%; in the series with Mus musculus [2] it was 74%; in the series on Mus musculus [3], 85%; in the series with Mus musculus [4], 77%; in series [5], “Toxic”; in series [6], 88%. For the molecule `Cc1nc(C)c(C)c(-c2[nH]c3ccc(C4CCNCC4)cc3c2C(C)C)c1C`, the IC50 on Toll-like receptor 7 came out at 300 nM. As for `Cc1nccc(-c2[nH]c3ccc(C4CCNCC4)cc3c2C(C)C)c1C`, the IC50 on Toll-like receptor 7 is 28 nM. Besides, the Ratio IC50 in the series filed under Homo sapiens came to 25. `CC(C)c1c(-c2ccnc(CO)c2)[nH]c2ccc(C3CCNCC3)cc12`: the Ratio IC50 in the series filed under Homo sapiens is 19. As for `Cc1cc(-c2[nH]c3cc(F)c(C4CCNCC4)cc3c2C(C)C)ccn1`, the IC50 at Toll-like receptor 7 amounted to 0.8 nM.

With `Cc1cc(-c2[nH]c3ccc(C4CCNCC4)cc3c2C(C)C)ccn1`, the Ratio IC50 in the series listed under Homo sapiens was found to be 160.

Turning to `CNCCN1CCC(c2ccc3[nH]c(-c4ccc(OC)nc4)c(C)c3c2)CC1`, the IC50 on Toll-like receptor 7 was more than 10000 nM. Still for that read-out and setting: for `CCc1c(-c2ccnc(C)c2)[nH]c2cc(F)c(C3CCNCC3)c(F)c12` the value was 13 nM; for `CC(C)c1c(-c2ccncc2CO)[nH]c2ccc(C3CCNCC3)cc12`, 200 nM; for `CC(C)c1c(-c2ccnc(C3CC3)c2)[nH]c2ccc(C3CCNCC3)cc12`, 92 nM.
